In assay [1] the test system is JAK1 JH2 and TYK2 JH2 versus JAK1 JH1, JAK2 JH1, JAK3 JH1 and TYK2 JH1. Put plainly: Competitive binding assay, selectivity JH2 versus JH1 domains. The protocol: For most assays, kinase-tagged T7 phage strains were prepared in an E. coli host derived from the BL21 strain. E. coli were grown to log-phase and infected with T7 phage and incubated with shaking at 32° C. until lysis. The lysates were centrifuged and filtered to remove cell debris. The remaining kinases were produced in HEK-293 cells and subsequently tagged with DNA for qPCR detection. Streptavidin coated magnetic beads were treated with biotinylated small molecule ligands for 30 minutes at room temperature to generate affinity resins for kinase assays. The liganded beads were blocked with excess biotin and washed with blocking buffer (SeaBlock (Pierce), 1% BSA, 0.05% Tween 20, 1 mM DTT) to remove unbound ligand and to reduce non-specific binding. […] Test compounds were prepared as 111X stocks in 100% DMSO. Dissociation constants (Kds) were determined using an 11-point 3-fold compound dilution series with three DMSO control points. […] The compounds were then diluted directly into the assays such that the final concentration of DMSO was 0.9%. […] The kinase concentration in the eluates was measured by qPCR.
An 11-point 3-fold serial dilution of each test compound was prepared in 100% DMSO at 100× final test concentration and subsequently diluted to 1× in the assay (final DMSO concentration=1%). Most Kds were determined using a compound top concentration=30,000 nM. […]

In assay [2] the test system is JAK1/JAK2 pathway. As to the kind of experiment: Western blot p-STAT1/STAT1 in IFN-γ-stimulated HT-29 cells. It is filed as cell-based. The following applies: IFN-γ 100 ng/mL. The protocol:
HT-29 cells were digested by trypsin and suspended in Dulbecco's Modified Eagle Medium (DMEM) and counted. The tested compounds were added into the 6 well plates (400 000/per well). After 2 hours, IFN-γ (100 ng/mL) was added to stimulate cells for 30 minutes. The cells were collected and lysed with protein lysate. The protein was quantitatively tested by BCA kit. Finally, p-STAT1/STAT1 and internal reference protein β-actin were detected by Western blot.
A general note: Immunoblotting shows a protein as a band on a membrane.

Assay [3] has as its target JAK1 JH2 (Homo sapiens (Human), UniProt P23458). As to the kind of experiment: Competitive binding assay. As for the experimental part: (§1) For most assays, kinase-tagged T7 phage strains were prepared in an E. coli host derived from the BL21 strain. E. coli were grown to log-phase and infected with T7 phage and incubated with shaking at 32° C. until lysis. The lysates were centrifuged and filtered to remove cell debris. The remaining kinases were produced in HEK-293 cells and subsequently tagged with DNA for qPCR detection. Streptavidin coated magnetic beads were treated with biotinylated small molecule ligands for 30 minutes at room temperature to generate affinity resins for kinase assays. The liganded beads were blocked with excess biotin and washed with blocking buffer (SeaBlock (Pierce), 1% BSA, 0.05% Tween 20, 1 mM DTT) to remove unbound ligand and to reduce non-specific binding. […] Test compounds were prepared as 111X stocks in 100% DMSO. Dissociation constants (Kds) were determined using an 11-point 3-fold compound dilution series with three DMSO control points. […] The compounds were then diluted directly into the assays such that the final concentration of DMSO was 0.9%. All reactions performed in polypropylene 384-well plate. Each was a final volume of 0.02 ml. […] The beads were then re-suspended in elution buffer (1×PBS, 0.05% Tween 20, 0.5 μM nonbiotinylated affinity ligand) and incubated at room temperature with shaking for 30 minutes. The kinase concentration in the eluates was measured by qPCR.
(§2) An 11-point 3-fold serial dilution of each test compound was prepared in 100% DMSO at 100× final test concentration and subsequently diluted to 1× in the assay (final DMSO concentration=1%). Most Kds were determined using a compound top concentration=30,000 nM. If the initial Kd determined was <0.5 nM (the lowest concentration tested), the measurement was repeated with a serial dilution starting at a lower top concentration.
(§3) Binding constants (Kds) were calculated with a standard dose-response curve using the Hill equation: […]
(§4) The Hill Slope was set to −1.
(§5) Curves were fitted using a non-linear least square fit with the Levenberg-Marquardt algorithm.

The target in assay [4] is TYK2 JH2 (Homo sapiens (Human), UniProt P29597). Put plainly: Competitive binding assay. As for the experimental part:
as §1, §2, §3, §4, §5

For assay [5], the target named is TYK2 JH1 (Homo sapiens (Human), UniProt P29597). As to the kind of experiment: Competitive binding assay. As for the experimental part: as §1, §2, §3, §4, §5
For assay [6], the target named is JAK2 JH1 (Homo sapiens (Human), UniProt O60674). Put plainly: Competitive binding assay. As for the experimental part:
as §1, §2, §3, §4, §5

In assay [7] the target is JAK3 JH1 (Homo sapiens (Human), UniProt P52333). Put plainly: Competitive binding assay. The protocol:
as §1, §2, §3, §4, §5

The target in assay [8] is JAK1 JH1 (Homo sapiens (Human), UniProt P23458). Put plainly: Competitive binding assay. The protocol:
as §1, §2, §3, §4, §5

For assay [9], the system named is IFNα induced TYK2/JAK1 mediated STAT activation. As to the kind of experiment: Luciferase assay in L929 ISRE cells stimulated with IFN-α. The following applies: Mus musculus, IFN-α 100 ng/mL. It counts as cell-based.
Assay [10] concerns IFNα induced CXCL-10 in PBMC. Put plainly: ELISA of IFNα induced CXCL-10 in PBMC. It is filed as cell-based. As for the experimental part: • 1. Soak plate: Add 300 μL 1× washing solution and let stand for 30 seconds. After discarding the washing solution, anhydrous the microporous plate on absorbent paper. • 2. Add standard: Add 100 μL of 2-fold standard to standard well. Add 100 μL standard dilution (serum/plasma sample) or culture medium (cell culture supernatant sample) to blank well. • 3. Add sample: Serum/plasma: Add 50 μL 1× assay buffer and 50 μL sample to sample well. Cell culture supernatant: Add 100 μL cell culture supernatant to sample well. • 4. Add detection antibody: Add 50 μL diluted detection antibody (1:100 diluted) to each well. Make sure steps 4, 5 and 6 are added continuously without interruption. The sampling process was completed within 15 minutes. • 5. Incubation: Use sealing plate film to seal the plate. Shake at 300 rpm and incubate for 2 hours at room temperature. • 6. Washing: Discard the liquid, add 300 μL of washing solution and wash the plate 6 times. Pat anhydrous on blotting paper after each wash. To obtain the desired experimental performance, the residual liquid must be completely removed. • 7. Enzyme addition: Add 100 μL diluted horseradish peroxidase labeled streptavidin to each well (1:100 diluted). • 8. Incubation: Seal the plate with a new sealing film. Shake at 300 rpm and incubate at room temperature for 45 minutes. • 9. Washing: Repeat […]. • 10. Add substrate for color development: Add 100 μL of color development substrate TMB to each well, keep away from light, and incubate at room temperature for 5-30 minutes. • 11. Add Stop Solution: Add 100 μL stop solution to each well. The color changed from blue to yellow. If the color appears green or the color changes unevenly, gently tap the frame of the plate to mix well. • 12. Assay readout: Within 30 minutes, perform dual wavelength detection using a microplate reader to measure the OD at the absorption maximum at 450 nm and reference wavelengths at 570 nm or 630 nm. The calibrated OD value is the measured value at 450 nm minus the measured value at 570 nm or 630 nm.

Each structure is given as a SMILES string.

By Kd is commonly meant the equilibrium constant for the complex coming apart. Read a high Kd as lower affinity. As a reminder, the IC50 is the concentration at which inhibition is half-maximal.

JAK1 JH2, sequence (P23458 583-855): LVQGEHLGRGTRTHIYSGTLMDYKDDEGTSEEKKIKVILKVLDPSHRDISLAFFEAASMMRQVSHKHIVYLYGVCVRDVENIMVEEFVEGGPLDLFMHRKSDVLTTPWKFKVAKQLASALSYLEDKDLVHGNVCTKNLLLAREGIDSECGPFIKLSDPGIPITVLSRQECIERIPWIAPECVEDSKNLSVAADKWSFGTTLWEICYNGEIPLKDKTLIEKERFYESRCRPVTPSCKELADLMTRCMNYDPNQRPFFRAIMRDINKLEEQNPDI
JAK2 JH1, sequence (O60674 849-1124): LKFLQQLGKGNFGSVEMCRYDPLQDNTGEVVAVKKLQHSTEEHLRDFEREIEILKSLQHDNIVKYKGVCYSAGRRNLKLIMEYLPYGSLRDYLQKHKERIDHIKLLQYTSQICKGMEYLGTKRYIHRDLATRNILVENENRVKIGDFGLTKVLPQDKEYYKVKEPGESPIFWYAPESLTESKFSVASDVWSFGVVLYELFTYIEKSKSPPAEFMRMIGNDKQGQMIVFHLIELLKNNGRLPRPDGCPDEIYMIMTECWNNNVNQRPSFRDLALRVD
JAK1 JH1, sequence (P23458 875-1153): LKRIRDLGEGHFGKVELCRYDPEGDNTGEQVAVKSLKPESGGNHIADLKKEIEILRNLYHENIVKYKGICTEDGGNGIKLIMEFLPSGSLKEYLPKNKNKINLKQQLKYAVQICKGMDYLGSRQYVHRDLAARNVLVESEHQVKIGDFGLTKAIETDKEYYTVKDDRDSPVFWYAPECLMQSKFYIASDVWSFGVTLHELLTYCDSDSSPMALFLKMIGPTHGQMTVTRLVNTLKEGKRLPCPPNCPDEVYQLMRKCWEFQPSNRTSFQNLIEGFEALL
TYK2 JH2, sequence (P29597 589-875): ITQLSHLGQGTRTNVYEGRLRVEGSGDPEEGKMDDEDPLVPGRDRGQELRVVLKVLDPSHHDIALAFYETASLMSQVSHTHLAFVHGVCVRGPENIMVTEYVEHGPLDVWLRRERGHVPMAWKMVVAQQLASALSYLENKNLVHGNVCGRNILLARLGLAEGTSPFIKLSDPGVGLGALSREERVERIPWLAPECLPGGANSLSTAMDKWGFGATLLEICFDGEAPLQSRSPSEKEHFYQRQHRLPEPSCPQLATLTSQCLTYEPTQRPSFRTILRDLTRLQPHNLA
JAK3 JH1, sequence (P52333 822-1111): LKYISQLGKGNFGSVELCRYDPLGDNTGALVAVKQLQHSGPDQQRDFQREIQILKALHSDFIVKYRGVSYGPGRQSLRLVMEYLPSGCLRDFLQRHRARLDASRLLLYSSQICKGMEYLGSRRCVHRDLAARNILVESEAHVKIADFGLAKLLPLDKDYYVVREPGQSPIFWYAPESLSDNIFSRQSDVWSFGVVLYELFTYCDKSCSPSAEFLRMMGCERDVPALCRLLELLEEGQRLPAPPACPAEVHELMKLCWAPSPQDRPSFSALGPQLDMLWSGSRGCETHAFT
TYK2 JH1, sequence (P29597 897-1176): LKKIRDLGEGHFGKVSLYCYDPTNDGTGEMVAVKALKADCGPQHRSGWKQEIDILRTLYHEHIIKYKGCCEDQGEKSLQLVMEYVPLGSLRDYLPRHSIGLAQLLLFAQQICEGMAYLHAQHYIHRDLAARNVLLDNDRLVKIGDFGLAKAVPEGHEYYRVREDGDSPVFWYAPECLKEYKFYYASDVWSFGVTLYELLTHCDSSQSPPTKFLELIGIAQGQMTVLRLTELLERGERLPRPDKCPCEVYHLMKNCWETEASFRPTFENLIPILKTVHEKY

Regarding `COc1c(Nc2cc(NC(=O)C3CC3)nnc2C(N)=O)cccc1-c1cc(P(=O)(C2CC2)C2CC2)n(C)n1` [Compound A1, 6-(cyclopropanecarboxamido)-4-((3-(5-(dicyclopropylphosphoryl)-1-methyl-1H-pyrazol-3-yl)-2-methoxyphenyl)amino)pyridazine-3-carboxamide], the “selectivity to bind JAK1 JH2 and TYK2 JH2 than JAK1 JH1, JAK2 JH1, JAK3 JH1 and TYK2 JH1” value in assay [1] was “more than 10,000 times”. In addition, the “effect on downstream STAT1 phosphorylation induced by IFN-γ (JAK1/JAK2 pathway)” value in assay [2] is given as “inhibited JAK1/JAK2 pathway in a concentration-dependent manner”. Further, in [3], the dissociation constant (Kd) was 0.02 ± 0.002 nM and the “affinity to JAK1 JH2” value is reported as “strong affinity”. Further, in assay [4], binding was characterised by a dissociation constant (Kd) of 0.0044 ± 0.003 nM and the “affinity to TYK2 JH2” value is “strong affinity”. For the same compound, in [5], binding was characterised by a dissociation constant (Kd) of 550 ± 50 nM and the “affinity to TYK2 JH1” value is reported as “weak affinity”. Besides, in assay [6], the Kd was 790 ± 40 nM and the “affinity to JAK2 JH1” value is given as “weak affinity”. In addition, in assay [7], the affinity, expressed as Kd, was 210 ± 15 nM and the “affinity to JAK3 JH1” value is reported as “weak affinity”. In assay [8], the Kd was 6900 ± 900 nM and the “affinity to JAK1 JH1” value was “weak affinity”. In assay [9] (50 nM compound, read-out: Inhibitory activity % (50 nM)), the inhibition at 0.05 µM came to 34%. The inhibition at 0.2 µM in assay [9] (200 nM compound, read-out: Inhibitory activity % (200 nM)) was found to be 87%. In assay [9] (1000 nM compound, read-out: Inhibitory activity % (1000 nM)), the inhibition at 1 µM was determined as 98%. Also, the “inhibition of IFNα induced CXCL-10 in PBMC” value in assay [10] was “effectively inhibited IFNα induced CXCL-10 in PBMC”. The compound further came in with an IC50 in assay [10] (IFNα induced CXCL-10 in PBMC) of 6.3 nM.
